{"source": "patent US8946201B2", "about": "“Methods for inhibiting TGF-β” (Saint Louis University, priority 2007, dated 2015)", "key": {"TβR-I and TβR-II [1]": {"tested_on": "TβR-I and TβR-II", "assay": "125I-TGF-β1 affinity labeling, BAEC", "format": "cell-based, bovine", "settings": "1 μM, 37° C. 16 hr; BAEC cells; 2.47 untreated", "description": "(§1) (B, C, D, E) Cells were treated with increasing concentrations of cholesterol in the presence (C) and absence (B, D, E) of 0.2% β-CD, as indicated. After 1 hr at 37° C., ^125I-TGF-β1 affinity labeling of TβR-I and TβR-II in cells was performed at 0° C. ^125I-TGF-β1 affinity-labeled TβR-I and TβR-II were analyzed by 7.5% SDS-PAGE and autoradiography or quantified with a PhosphoImager. A representative of a total of three analyses is shown (top). The bracket indicates the locations of ^125I-TGF-β affinity-labeled TβR-I and TβR-II. The relative intensities of ^125I-TGF-β1 affinity-labeled TβR-I and TβR-II in cells treated without cholesterol were taken as 100%. The quantitative data from three analyses is shown (bottom).\n(§2) (A, B, C, D, E, F) Cells were treated with LDL (50 μg protein/ml), VLDL (5 μg protein/ml), HDL (50 μg protein/ml), lipoprotein (a) (10 μg/ml), fluvastatin (F; 1 μM), lovastatin (L; 1 μM), nystatin (Nys; 25 μg/ml), β-CD (β-CD; 8 mM), cholest-4-en-3-one (3-one; 50 μg/ml) or cholesterol (Chol; 50 μg/ml) alone or combination of two. After 1 hr at 37° C. or 16 hr at 37° C. (for fluvastatin and lovastatin), ^125I-TGF-β1 affinity labeling of cell-surface TGF-β receptors was performed at 0° C. ^125I-TGF-β1 affinity-labeled TβR-I and TβR-II were analyzed by 7.5% SDS-PAGE and autoradiography. The relative intensities of TβR-I and TβR-II were quantified with a PhosphoImager. The ratio of ^125I-TGF-β1 binding to TβR-II and TβR-I were estimated. The numbers above the lane sequence denote the ratio of TβR-II/TβR-I.\n(§3) After cross-linking, cell lysates were analyzed by 7.5% SDS-PAGE and autoradiography or quantified by a PhosphoImager. For all experiments, cholesterol or cholesterol derivatives were prepared as the stock solution with a concentration of 25 mg/ml in ethanol. The final concentration of ethanol in the medium was 0.2% (by vol.)."}, "PAI-1 expression": {"tested_on": "PAI-1 expression", "assay": "TGF-β1-induced PAI-1 expression, Northern blot, Mv1Lu cells", "format": "cell-based, mink", "settings": "Mv1Lu cells", "description": "(A, B, C, D, E, F) Cells were treated with 50 μg/ml cholesterol (A, B, C, D) and 50 μg/ml LDL (D) at 37° C. for 1 hr or with 1 μM fluvastatin or lovastatin (E) or several concentrations of fluvastatin (F) at 37° C. for 16 hr and then further incubated with increasing concentrations (as indicated) of TGF-β1 (A, B, C, E) or 50 pM TGF-β1 (D,F) for 2 hr. Northern blot analysis of PAI-1 and G3PDH was performed. A representative of a total of three analyses is shown (a). The relative intensities of the transcripts were quantified with a PhosphoImager. The ratio of the relative intensities of PAI-1 and G3PDH transcripts in cells treated without TGF-β1 and cholesterol, LDL or statins on the blot was taken as 1 fold or 100% of PAI-1 expression. The quantitative data from three independent analyses is shown (b). […] (G) Mv1Lu cells stably expressing a luciferase reporter gene driven by the PAI-1 promoter (MLECs-clone 32) were treated with increasing concentrations (as indicated) of cholesterol at 37 EC for 1 hr (a) or with 1 μM lovastatin at 37° C. for 16 hr (b) and then further incubated with 50 pM TGF-β for 7 hr. The luciferase activity in cells treated without cholesterol was taken as 100% (a). […] (H) Cells were incubated with 0.0625 and 0.125 pM TGF-β1 in the presence of increasing concentrations of cholesterol, as indicated. […] The experiments were carried out in triplicate."}, "TβR-I and TβR-II [2]": {"tested_on": "TβR-I and TβR-II", "assay": "Western blot of TβR-I and TβR-II protein levels, Mv1Lu cells", "format": "cell-based, mink", "settings": "37° C. for 16 hr; versus cholesterol-treated and control cells", "experimental": "Cells grown to near confluence on 12-well cluster dishes were treated with cholesterol or LDL in serum-free DMEM (vol.=0.5 ml/well) at 37° C. for 1 hr. The treated cells were further incubated with 50 or 100 pM TGF-β1 at 37° C. for 30 min (for determining Smad2 phosphorylation) or for 2 hr (for determining TβR-II). Treated cells were lysed and cell lysates were analyzed by 7.5% SDS-PAGE and Western blot analysis using anti-Smad2, anti-P-Smad2, anti-caveolin-1, anti-TβR-I (alk5) or anti-TβR-II antibodies as described previously (30). The antigens on the blots were visualized by using horseradish peroxidase-conjugated anti-rabbit IgG antibody and the ECL system as described (30).\nTo determine if cholesterol suppresses TGF-β responsiveness by decreasing the ratio of TGF-β1 binding to TβR-II and TβR-I, we first determined the time course of the effect of cholesterol treatment on the ratio of ^125I-TGF-β1 binding to TβR-II and TβR-I in Mv1Lu cells. These cells were treated with 50 μg/ml cholesterol at 37° C. for several time periods. ^125I-TGF-β1 binding to TGF-β receptors was then determined by affinity labeling using the bifunctional cross-linking agent DSS (disuccinimidyl suberate) followed by 7.5% SDS-PAGE and autoradiography or quantified with a PhosphoImager. […] We then performed analysis of the effect of cholesterol treatment on TGF-β1 binding to TβR-I and TβR-II in several cell types. Mv1Lu, BAEC, and NRK cells were treated for 1 hr with increasing concentrations of cholesterol in the presence and absence of 0.2% β-cyclodextrin (β-CD, which forms water-soluble complexes with cholesterol) at 37° C. The binding of TGF-β1 to TβR-I and TβR-II in these cells was then determined by ^125I-TGF-β1 affinity labeling at 0° C."}, "TβR-I and TβR-II [3]": {"tested_on": "TβR-I and TβR-II", "assay": "125I-TGF-β1 affinity labeling, CHO-K1 cells", "format": "cell-based, Chinese hamster", "settings": "1 μM, 37° C. 16 hr, 0.12 untreated", "description": "as §2\nAfter cross-linking, cell lysates were analyzed by 7.5% SDS-PAGE and autoradiography or quantified by a PhosphoImager. For all experiments, cholesterol or cholesterol derivatives were prepared as the stock solution with a concentration of 25 mg/ml in ethanol. The final concentration of ethanol in the medium was 0.2% (by vol.). […]"}, "TβR-I and TβR-II [4]": {"tested_on": "TβR-I and TβR-II", "assay": "125I-TGF-β1 affinity labeling, Mv1Lu cells", "format": "cell-based, mink", "settings": "1 μM, 37° C. 16 hr; Mv1Lu cells; 0.88 untreated", "description": "(A) Mv1Lu cells were treated with 50 μg/ml cholesterol at 37° C. After several time periods, as indicated, ^125I-TGF-β1-affinity labeling was performed at 0° C. ^125I-TGF-β1 affinity-labeled TGF-β receptors were analyzed by 7.5% SDS-PAGE and autoradiography (a) and quantified with a PhosphoImager. The bracket indicates the locations of ^125I-TGF-β1 affinity-labeled TβR-I and TβR-II. The ratio of ^125I-TGF-β1 binding to TβR-II and TβR-I is plotted against incubation time (b).\nas §1\nThe bracket indicates the locations of ^125I-TGF-β1 affinity-labeled TβR-I and TβR-II. The relative intensities of ^125I-TGF-β1-TβR-I and ^125I-TGF-β1-TβR-II complexes, which were quantified with a PhosphoImager, are plotted against TGF-β1 concentrations (bottom).\nas §2\n(G) Mv1Lu cells were treated with 50 μg/ml of cholesterol and cholesterol analogs/derivatives including 25-hydroxycholesterol, 7-dehydrocholesterol (7-DHC), 7-ketocholesterol, 7β, 8β-epoxycholesterol, 7β-hydroxycholesterol, and oxidized 7-dehydrocholesterol (oxy-7DHC). After 1 hr at 37° C., ^125I-TGF-β1 affinity labeling of TGF-β receptors was performed. ^125I-TGF-β1 affinity-labeled TβR-I and TβR-II were analyzed by 7.5% SDS-PAGE and autoradiography. The bracket indicates the locations of ^125I-TGF-β1-affinity-labeled TβR-I and TβR-II. The relative intensities of ^125I-TGF-β1 affinity-labeled TβR-I and TβR-II were determined by a PhosphoImager. The ratios of ^125I-TGF-β1 binding to TβR-II and TβR-I were estimated. The numbers above the lane sequence denote the ratio of TβR-II/TβR-I.\nas §3"}}}
{"compound": "CC(C)n1c(/C=C/C(O)CC(O)CC(=O)O)c(-c2ccc(F)cc2)c2ccccc21", "note": "(stereo not drawn) [fluvastatin, reference compound]", "values": [{"measurement": "ratio of TβR-II/TβR-I", "setting": "TβR-I and TβR-II [1]", "result": 2.91}, {"measurement": "enhancement of PAI-1 expression", "setting": "PAI-1 expression; 1 μM, 16 hr, 10 pM TGF-β1", "result": 3, "unit": "fold"}, {"measurement": "EC50", "setting": "PAI-1 expression; stimulated by 50 pM TGF-β1, read-out: EC50 of enhancement of PAI-1 expression", "result": 500, "unit": "nM"}, {"measurement": "increase of the total amount of TβR-II", "setting": "TβR-I and TβR-II [2]", "result": "~1.5", "unit": "fold"}, {"measurement": "ratio of TβR-II/TβR-I", "setting": "TβR-I and TβR-II [3]", "result": 0.19}, {"measurement": "ratio of TβR-II/TβR-I", "setting": "TβR-I and TβR-II [4]", "result": 1.3}]}
